Test results: patent US8895069B2, “Drug delivery system using hyaluronic acid-peptide conjugate micelle” (Postech Academy-Industry Foundation, priority 2011, dated 2014)
Ends that are not written are not given here.

Legend:
[1] = test system: vascular hyperpermeability due to diabetic retinopathy; experiment: Vascular hyperpermeability due to diabetic retinopathy, streptozotocin, dextran-FITC fluorescence (Experimental Example 10); assay type: in vivo, Sprague Dawley (SD) male rats; settings: hyaluronic acid test group = 100%; intravitreal 10 μL, peptide 5 mg/ml; four weeks after streptozotocin
Text: Four groups consisted of a hyaluronic acid test group, an anti-Flt1 peptide (GGNQWFI) (SEQ ID NO: 3) test group, a test group of the hyaluronic acid-peptide conjugate with a lower peptide content (with 20 peptides being conjugated per one molecule of HA-TBA) as prepared from Preparation Example 3 (HA-GGNQWFI), and a test group of the hyaluronic acid-peptide conjugate with a higher peptide content (with 28 peptides being conjugated per one molecule of HA-TBA) as prepared from Preparation Example 3(HA-GGNQWFI(2)). The anti-Flt1 peptide sample and the hyaluronic acid-peptide conjugate samples were made to have an identical peptide concentration of 5 mg/ml. First, each rat was injected intraperitonially with 60 mg/kg of streptozotocin dissolved in 10 mM citrate buffer at pH 4.5 in order for diabetes to be induced. In three days after the injection of streptozotocin, the rat was determined to develop diabetes when its serum concentration of glucose was at least 300 mg/dL. In a week after the injection of streptozotocin, 10 μL of each sample solution was injected into the vitroeus body. In four weeks after the injection of streptozotocin, the effect of inhibiting vascular hyperpermeability due to diabetic retinopathy was determined by the fluorescence microscopic analysis with using dextran-FITC (MW=10,000) in the same manner as set forth in Experimental Example 7-1.

[2] = test system: methacholine airway hyper-responsiveness; experiment: Methacholine airway hyper-responsiveness (Penh) in OVA/LPS asthma model; assay type: in vivo, BALB/c mice; settings: 24 hours after the last allergen challenge, intranasal
Procedure: The biological activity of the hyaluronic acid-peptide conjugate with a lower peptide concentration (HA-GGNQWFI) in accordance with Preparation Example 3 was measured through the reaction to methacholine. Specifically, as to the airway hyper-responsiveness (AHR), the laboratory rat (in vivo) was made to keep exercising naturally without being put under anesthesia and the enhanced pause (Penh), the number reflecting the airway obstruction as represented by Mathematical Equation 1 was measured by using plethysmography. In this experimentation was used a non-invasive method wherein the measurement was conducted without correcting or putting the laboratory animal under anesthesia. Penh=[(Te/RT−1)×(PEF/PIF)] [Mathematical Equation 1]
In Mathematical Equation 1, Te represents an expiratory time (seconds), RT represents a relaxation time (seconds), PEF represents a peak expiratory flow […], and PIF represents a peak inspiratory flow (ml/s).
As the laboratory mouse, BALB/c mice (female, 6 week old, 5 per each group) were used. […]
The pulmonary function was measured on the 23th day by using the non-invasive whole body plethysmographs for the mouse that was not put under anesthesia. […] The aerosol was prepared by using an ultrasonic nebulizer and the laboratory mouse was exposed to methacholine for 3 minutes and then the Penh was measured for 5 minutes.

[3] = Pharmacokinetics in the vitreous body after intravitreal injection; assay type: in vivo, Sprague Dawley (SD) male rats
Procedure: Three groups consisted of a hyaluronic acid (HA) test group, an anti-Flt1 peptide (GGNQWFI) (SEQ ID NO: 3) test group, and a test group of the hyaluronic acid-peptide conjugate with a lower peptide content as prepared from Preparation Example 3 (HA-GGNQWFI). The anti-Flt1 peptide sample and the hyaluronic acid-peptide conjugate sample were made to have an identical peptide concentration of 5 mg/ml. 10 μL of each sample solution was injected into the vitroeus body, which was sampled in 6 hours, 1 day, 3 days, 7 days, 10 days, and 14 days and stored at −20° C. until analysis. The concentration of the anti-Flt1 peptide in the vitreous body was measured with fluorescence analysis. Specifically, the vitreous body was disintegrated by using 200 μL of RIPA buffer, and then subjected to centrifugation under 14,000 g at 4° C. for 10 minutes to provide a supernatant solution. By using a spectrofluorometer (Cary Eclipse Fluorescence Spectrophotometer, Varian, Australia), the photoluminescence of each sample was measured at an excitation wave length of 280 nm and an emission wavelength of 350 nm. The vitreous body of the SD rat that was not treated at all was used as a blank control.

[4] = male, Sprague Dawley (SD), vitreous body, 50 µg, rat, single intravitreal 10 μL, peptide 5 mg/ml
[5] = rat, single intravitreal 10 μL, peptide 5 mg/ml

| Substance | average intensity of the fluorescence of retina (dextran-FITC) [1] | methacholine airway hyper-responsiveness [2] | Cmax [3, 4] | Tmax [3, 4] | time for which the concentration in the vitreous body was maintained above base line [3, 5] | Cmax in the vitreous body [3, 5] | Tmax in the vitreous body [3, 5] | AUC / bioavailability (AUC/dose) in the vitreous body ([3]; same dose, compared with anti-Flt1 peptide) |
| --- | --- | --- | --- | --- | --- | --- | --- | --- |
| GGNQWFI [anti-Flt1 peptide, GGNQWFI] | 79.0±9.2% | inferior to the hyaluronic acid-peptide conjugate | 800 ± 700 µg/mL | 24 h | < 10 days | – | – | – |
| HA-GGNQWFI: hyaluronic acid (MW 100 kDa) conjugated with GGNQWFI, 20 peptides per one molecule of HA-TBA (also: conjugated to hyaluronic acid, about 20 peptides per HA) | 58.4±7.8% | greatly reduced to a level similar to that of the normal control group | – | – | at least 14 days | 1600 ± 600 µg/mL | 6 h | higher AUC than that of the anti-Flt1 peptide |
